Columns and labels:
mTOR = mTOR (Homo sapiens, UniProt P42345); conditions: cell-free assays; cited from earlier work
[1] = tested on: ERK activation/phosphorylation in cells expressing WT and mutant BRAF or PTPN11; assay: pERK levels in Ea.hy926 cells expressing WT and mutant BRAF or PTPN11, MEK inhibitor titration; format: cell-based, human; conditions: cells expressing WT and mutant BRAF or PTPN11, FIGS. 4 and 5
Source text: A cellular model for studying the effects of potential ERK-activating mutations was developed. We have retrovirally expressed wild-type and mutant versions of proteins in the cell line Ea.hy926. The Ea.hy926 cell line is a fusion of human umbilical vein endothelial cells with a […] cell line. It is immortalized and retains some characteristics of endothelial cells.
In an effort to identify inhibitors with greater therapeutic efficacy, we have treated cells expressing WT and mutant BRAF or PTPN11 with various MEK inhibitors. […] BRAF F486S consistently induces ERK activation over WT levels, although the specific fold increase varies from gel to gel.

[2] = tested on: HDLECs expressing ARAF mutation S214P; assay: Immunofluorescence staining and western blotting of HDLECs expressing ARAF-S214P; format: cell-based, human; conditions: for biochemical and morphological reversal of the effects induced by the ARAF mutation / cell morphological differences induced by ARAF-S214P: HDLECs; for VE-cadherin accumulation at the cell membrane / levels of pERK: HDLECs expressing ARAF-S214P
Source text: We developed a cellular model to better understand and study the effects of potential ERK-activating mutations was developed by using primary lymphatic endothelial cells instead of established cell lines to capture the characteristics of mutations in the disease relevant cell type. We have retrovirally expressed wild-type and mutant versions of proteins in the human dermal lymphatic endothelial cells (HDLECs).
The ARAF sequence, from pCDNA3.1-F2S2-ARAF-WT or -S214P constructs as previously indicated, was cut with BamHI/XhoI and introduced into the BglII/XhoI sites of a modified version of the pMSCV plasmid that contains aminoterminal FLAG and HA tags. Viral production was performed using Fugene, with 8 μg of total DNA (pMSCV-ARAF-WT or -S214P together with envelope and packaging plasmids) and 18 μl of the transfection reagent in HEK293T. After 72 h, viral supernatant was collected and filtered. HDLECs were infected by replacing the cell culture medium with the viral supernatant, supplemented with 8 μg ml^−1 Polybrene and filtered through a 0.45 μm filter. Cells were spinfected at 650 g for 90 min, and subsequently cultured for 6 h at which point the viral supernatant was replaced by standard culture medium. Transduced HDLECs were cultured for 48 h before use in experiments. Transduction efficiencies observed by HA staining were between 40% and 60%.
Round (12 mm) coverslips (VWR) were coated with 0.1% gelatin in water for 10 min in 24-well plates (Corning), and then air-dried for 15 min. […] Cells were washed in warm serum-free Dulbecco's modified Eagle's medium and fixed in 4% paraformaldehyde. Fixed cells were washed twice with PBS and twice with 0.1% BSA in PBS. Cells were permeablized and blocked by incubation with 10% normal donkey serum (Jackson Immunoresearch) and 0.3% Triton X-100 (Sigma Aldrich) in PBS. VE-cadherin antibody (Thermo Fisher Scientific) was diluted (final concentration: 2 μg ml^−1) in 0.01% normal donkey serum, 0.1% BSA and 0.3% Triton X-100 in PBS, and staining was performed for 1 h. Coverslips were washed twice with 0.1% BSA in PBS. Goat-anti-rabbit Alexa546 (Thermo Fisher Scientific; final concentration: 8 μg ml-1) and phalloidin Alexa350 (Thermo Fisher Scientific; final concentration: 5 units ml-1) were diluted in 0.01% normal donkey serum, 0.1% BSA and 0.3% Triton X-100 in PBS, and staining was performed for 1 h. When used, HA-Tag (6E2) mouse antibody (cat. no. 2367, Cell Signaling Technology) was diluted 1:100 in 0.1% BSA and 0.3% Triton X-100 in PBS, and staining was performed for 1 h. Coverslips were washed twice with 0.1% BSA in PBS and twice with PBS. Coverslips were dipped in water to remove residual salts, and mounted to slides using Prolong Gold antifade reagent (Thermo Fisher Scientific). Image acquisition was performed on a Leica DM6000 motorized upright microscope with a Photometrics HQ2 high-resolution monochrome CCD (charge-coupled device) camera using LAS AF software (Leica Microsystems). Z-stacks were acquired at ×10 magnification. Images were further processed in the Fiji software package42. Brightness and contrast adjustments were made. Identical brightness and contrast settings were applied to all images. Fluorescence values were measured in regions of interest (ROIs) drawn to contain entire individual cells, or in ROIs drawn to contain the entire cell body but exclude the cell-cell junction. From those measured values, a value for the plasma membrane was derived (total cell-intracellular), and the ratio of plasma membrane to intracellular values was derived and plotted. Additionally, the length and width of cells were measured with the line tool and ROI manager. For both analyses, five clearly ARAF-expressing cells, as determined by HA staining, were analyzed per ×10 field. Five ×10 fields were acquired per condition per experiment. Experiments were conducted with cells from 3 independent thaws and transductions of HDLECs, for a total of 75 cells per condition. […]

[3] = tested on: zebrafish larvae overexpressing KRAS-G12D mutant in lymphatics; assay: Zebrafish model overexpressing KRAS-G12D in lymphatics; format: in vivo; conditions: FIG. 19
MM cell lines = conditions: units printed inside the range; cited from earlier work
[4] = tested on: Abl1, AKT3, c-RAF, CamK1, CDK2, c-Met; conditions: cited from earlier work

| Compound | IC50 (mTOR) | pERK levels, titration curves [1] | biochemical and morphological reversal of the effects induced by the ARAF mutation [2] | cell morphological differences induced by ARAF-S214P [2] | VE-cadherin accumulation at the cell membrane [2] | levels of pERK [2] | disorganized lymphatic branching [3] | edema [3] | IC50 (MM cell lines) | activity to Abl1, AKT3, c-RAF, CamK1, CDK2, c-Met, etc. [4] |
| --- | --- | --- | --- | --- | --- | --- | --- | --- | --- | --- |
| CO[C@H]1C[C@@H]2CC[C@@H](C)[C@@](O)(O2)C(=O)C(=O)N2CCCC[C@H]2C(=O)O[C@H]([C@H](C)C[C@@H]2CC[C@@H](OCCO)[C@H](OC)C2)CC(=O)[C@H](C)/C=C(\C)[C@@H](O)[C@@H](OC)C(=O)[C@H](C)C[C@H](C)/C=C/C=C/C=C/1C [Everolimus (RAD001), Everolimus] | 1.6 to 2.4 nM | – | – | – | – | – | – | – | – | – |
| O=C(NC[C@H](O)CO)c1ccncc1Nc1ccc(I)cc1F [Pimasertib (AS-703026), Pimasertib] | – | reducing pERK levels in cells in a dose dependent manner | reversal | rescued | increased | reduced | improvement | decrease | 5 to 2000 nM | – |
| Cn1c(=O)c(F)c(Nc2ccc(I)cc2F)c2c(=O)n(C[C@@H](O)CO)cnc21 [TAK-733] | – | – | reversal | rescued | increased | reduced | improvement | decrease | – | inactive to Abl1, AKT3, c-RAF, |
